From ChEMBL document CHEMBL1938376, “In vitro and in silico studies of polycondensed diazine systems as anti-parasitic agents” (Bioorg Med Chem Lett, 2012)

Columns and labels:
Plasmodium falciparum = assay: Antimalarial activity against chloroquine-sensitive Plasmodium falciparum GHA infected in human erythrocytes assessed as parasite growth after 72 hrs by malstat reagent based spectrophotometric method; assay type: functional, organism-based
[1] = Solubility of the compound in 13% DMSO/water; assay type: physicochemical; settings: buffer
Trypanosoma cruzi = assay: Antiparasitic activity against nifurtimox-sensitive amastigotes of Trypanosoma cruzi Tulahuen expressing LacZ gene infected in human MRC5 cells using chlorophenolred b-Dgalacto-pyranoside as substrate by colorimetric method; assay type: functional, organism-based
Trypanosoma brucei = assay: Antiparasitic activity against trypomastigote form of drug-sensitive Trypanosoma brucei assessed as inhibition of parasite growth after 4 days using alamar blue/resazurin staining by fluorimetric method; assay type: functional, organism-based
MRC5 = assay: Cytotoxicity against human MRC5 cells after 4 to 7 days using alamar blue/resazurin staining by fluorescence assay; assay type: cell-based
Leishmania infantum = assay: Antiparasitic activity against amastigotes of Leishmania infantum infected in mouse peritoneal macrophages after 5 days using giemsa staining by microscopic analysis; assay type: functional, organism-based
[2] = Solubility of the compound; assay type: physicochemical
[3] = Selectivity index, ratio of IC50 for human MRC5 cells to IC50 for drug-sensitive trypomastigotes of Trypanosoma brucei; assay type: toxicity, cell-based; settings: read-out: Ratio IC50
[4] = Selectivity index, ratio of IC50 for human MRC5 cells to IC50 for nifurtimox-sensitive amastigotes of Trypanosoma cruzi; assay type: toxicity, cell-based; settings: read-out: Ratio IC50
[5] = Solubility of the compound in 100% DMSO; assay type: physicochemical
[6] = Selectivity index, ratio of IC50 for human MRC5 cells to IC50 for chloroquine-sensitive Plasmodium falciparum GHA; assay type: toxicity, cell-based; settings: read-out: Ratio IC50
[7] = Plasmodium falciparum, GHA, 72 h
[8] = Trypanosoma cruzi, Tulahuen, MRC5

SMILES	IC50 (Plasmodium falciparum; [7]) [µM]	solubility [1]	IC50 (Trypanosoma cruzi; [8]) [µM]	IC50 (Trypanosoma brucei; Trypanosoma brucei, 96 h) [µM]	IC50 (MRC5; Homo sapiens, MRC5) [µM]	IC50 (Leishmania infantum; Leishmania infantum, 120 h) [µM]	solubility [2]	selectivity ratio [3]	IC50 (Plasmodium falciparum) [µM]	IC50 (Trypanosoma cruzi; mrc5) [µM]	IC50 (Trypanosoma brucei) [µM]	selectivity ratio [4]	IC50 (MRC5; mrc5) [µM]	IC50 (Leishmania infantum) [µM]	solubility [5]	selectivity ratio [6]
C1=NN(c2ccccc2)C2C3N(C=NN3c3ccccc3)c3ccccc3N12 (configuration not stated)	29.8	soluble	64	64	64	64										
CCOC(=O)C1=NN(c2ccc(Cl)cc2)C2C3N(c4ccc(Cl)cc4)N=C(C(=O)OCC)N3c3ccccc3N12 (stereo in doubt; 4g)							soluble	2	18.6	8.75	2.01	6	12.4	32		
COC(=O)C1=NN(c2ccccc2)[C@@H]2N1c1ccccc1N1C(C(=O)OC)=NN(c3ccccc3)[C@@]21C (racemic)	11.6	soluble	4.29	64	64	64						6				
C1=C(c2ccccc2)NC2=NC=C3N(c4ccccc4)N=C(c4ccccc4)N3C12 (configuration not stated)	64		64	64	64	64									Insoluble	
O=C(C1=NN(c2ccccc2)C2C3N(c4ccccc4)N=C(C(=O)c4ccccc4)N3c3ccccc3N12)c1ccccc1 (configuration not stated)	27.7	soluble	64	2.03	17.6	32.5	soluble	2								
COC(=O)C1=NN(c2ccccc2)C2C3N(c4ccccc4)N=C(C(=O)OC)N3c3ccccc3N12 (stereo in doubt; 4e)									25.6	42.5	34.6		33.1			
COC(=O)C1=NN(c2ccc(Cl)cc2)C2C3N(c4ccc(Cl)cc4)N=C(C(=O)OC)N3c3c(C)cccc3N12 (racemic)	42.6	soluble	64	64	64	64										
COC(=O)C1=NN(c2ccc(Cl)cc2)C2(C1)Nc1ccccc1N1C(C(=O)OC)=NN(c3ccc(Cl)cc3)C12 (racemic)	64	soluble	64	64	64	64										
COC(=O)C1=NN(c2ccccc2)C2=CNc3c(C)cccc3N21	64	soluble	64	64	64	64										
CC(=O)C1=NN(c2ccccc2)C2C3N(c4ccccc4)N=C(C(C)=O)N3c3ccccc3N12 (stereo in doubt; 4a)		soluble				32			64	38.1	64		64			
C[C@]12[C@@H]3N(c4ccccc4)N=C(C(=O)c4ccccc4)N3c3ccccc3N1C(C(=O)c1ccccc1)=NN2c1ccccc1 (racemic)	8.23	soluble	10.1	2.06	64	8		2								
CCOC(=O)C1=NN(c2ccc(Cl)cc2)[C@@H]2N1c1ccccc1N1C(C(=O)OCC)=NN(c3ccc(Cl)cc3)[C@@]21C (racemic)	0.5	soluble	64	64	64	64	soluble									128
COC(=O)C1=NN(c2ccccc2)C2C3N(c4ccccc4)N=C(C(=O)OC)N3c3ccccc3N12 (stereo in doubt; 4d)		soluble	64	64	64	64			12.3			6				
CCOC(=O)C1=NN(c2ccc(Cl)cc2)C2C3N(c4ccc(Cl)cc4)N=C(C(=O)OCC)N3c3ccccc3N12 (stereo in doubt; 4f)		soluble				64			37.3	64	64		64			
CC(=O)C1=NN(c2ccccc2)C2C3N(c4ccccc4)N=C(C(C)=O)N3c3[nH]c(-c4ccccc4)cc3N12 (configuration not stated)	2.15		64	64	64	32.5	soluble								Insoluble	
CCOC(=O)C1=NN(c2ccc(Cl)cc2)C2C3N(c4ccc(Cl)cc4)N=C(C(=O)OCC)N3c3[nH]c(-c4ccccc4)cc3N12 (configuration not stated)	26.9	soluble	40.3	32.2	64	64										
COC(=O)C1=NN(c2ccccc2)C2=CN=C3NC(c4ccccc4)=CC3N21 (configuration not stated)	64		64	64	64	64									Insoluble	
COC(=O)C1=NN(c2ccccc2)C2C3N(c4ccccc4)N=C(C(=O)OC)N3c3[nH]c(-c4ccccc4)cc3N12 (configuration not stated)	6.87	soluble	64	64	64	32.5										
CC(=O)C1=NN(c2ccccc2)C2C3N(c4ccccc4)N=C(C(C)=O)N3c3ccccc3N12 (stereo in doubt; 4b)									8.48	12.6	8.06		29.6	32.5		
CC(=O)C1=NN(c2ccccc2)[C@@H]2N1c1ccccc1N1C(C(C)=O)=NN(c3ccccc3)[C@@]21C (racemic)	29.2	soluble	33.7	32.2	64	24.1										
